# Measurements from patent US8227601B2, “Diaryl-purines, azapurines and -deazapurines as non-nucleoside reverse transcriptase inhibitor for treatment of HIV” (priority 2005, dated 2012).
# What was measured:
# Experiment in all cases: microbe, parasite or virus in culture
# Format in all cases: cell-based, human immunodeficiency virus type 1 (HIV-1)
# HIV-1 Y188L = conditions: Human immunodeficiency virus 1, read-out: EC50 Y188L (nM)
# HIV-1 L1001-K103N = conditions: Human immunodeficiency virus 1, read-out: EC50 L1001-K103N (nM), L1001-K103N mutant
# HIV-1 Y181C = conditions: Human immunodeficiency virus 1, read-out: EC50 Y181C (nM), Y181C mutant
# wild type HIV-1 = conditions: Human immunodeficiency virus 1, Hela-JC53, read-out: EC50 WT (nM)
Structure (SMILES),EC50 (HIV-1 Y188L) [nM],EC50 (HIV-1 L1001-K103N) [nM],EC50 (HIV-1 Y181C) [nM],EC50 (wild type HIV-1) [nM]
COc1cc(C)cc(OC)c1Oc1nc(Nc2ccc(C#N)cc2)nc2[nH]cnc12 [Cpd 50],10 to 100,> 100,< 10,< 10
Cc1cc(C)c(Sc2nc(Nc3ccc(C#N)cc3)nc3[nH]ccc23)c(C)c1 [Cpd 2],10 to 100,> 100,10 to 100,< 10
Cc1ccc(Oc2nc(Nc3ccc(C#N)cc3)nc3[nH]ccc23)c(C)c1 [Cpd 9],> 100,> 100,> 100,< 10
COc1ccc(Nc2nc(Oc3c(C)cc(C)cc3C)c3nc[nH]c3n2)cc1 [Cpd 35],> 100,> 100,10 to 100,< 10
Cc1cc(Br)cc(C)c1Oc1nc(Nc2ccc(C#N)cc2)nc2ccn(Cc3ccccc3)c12 [Cpd 58],> 100,> 100,10 to 100,10 to 100
Cc1cc(C)c(Sc2nc(Nc3ccc(C#N)cc3)nc3ccn(Cc4ccccc4)c23)c(C)c1 [Cpd 48],> 100,> 100,10 to 100,10 to 100
Cc1cc(C2CC2)cc(C)c1Oc1nc(Nc2ccc(C#N)cc2)nc2[nH]cnc12 [Cpd 19],< 10,10 to 100,< 10,< 10
Cc1ccc2cccc(Nc3nc(Nc4ccc(C#N)cc4)nc4[nH]cnc34)c2n1 [Cpd 30],> 100,> 100,> 100,> 100
Cc1cc(C2CC2)cc(Cl)c1Nc1nc(Nc2ccc(C#N)cc2)nc2[nH]cnc12 [Cpd 27],10 to 100,10 to 100,10 to 100,< 10
Cc1cc(C)c(Oc2nc(Nc3ccc(C#N)cc3)nc3c2ncn3C)c(C)c1 [Cpd 45],< 10,10 to 100,< 10,< 10
Cc1cc(C#N)cc(C)c1Oc1nc(Nc2ccc(C#N)cc2)nc2ccn(Cc3ccccc3)c12 [Cpd 41],10 to 100,10 to 100,< 10,< 10
Cc1cc(C)c(Sc2nc(Nc3ccc(C#N)cc3)nc3c(Cl)cn(Cc4ccccc4)c23)c(C)c1 [Cpd 54],10 to 100,> 100,10 to 100,< 10
Cc1cc(C#N)cc(C)c1Oc1nc(Nc2ccc(C#N)cc2)nc2c1ccn2C [Cpd 13],< 10,< 10,< 10,< 10
Cc1ccc2ccccc2c1Nc1nc(Nc2ccc(C#N)cc2)nc2[nH]cnc12 [Cpd 32],> 100,> 100,10 to 100,< 10
Cc1cc(Br)cc(Cl)c1Oc1nc(Nc2ccc(C#N)cc2)nc2c1ccn2Cc1ccccc1 [Cpd 8],> 100,> 100,> 100,10 to 100
Cc1cc(C#N)cc(C)c1Oc1nc(Nc2ccc(C#N)cc2)nc2[nH]ncc12 [Cpd 17],< 10,10 to 100,10 to 100,< 10
Cc1cc(C#N)cc(C)c1Oc1nc(Nc2ccc(C#N)cc2)nc2c(Br)cn(C)c12 [Cpd 70],< 10,< 10,< 10,< 10
Cc1cc(C2CC2)cc(C)c1Oc1nc(Nc2ccc(C#N)cc2)nc2cc[nH]c12 [Cpd 52],< 10,< 10,< 10,< 10
N#Cc1ccc(Nc2nc(Oc3ccc(Cl)c4ccccc34)c3nc[nH]c3n2)cc1 [Cpd 21],10 to 100,> 100,10 to 100,< 10
Cc1cc(Cl)cc(C)c1Oc1nc(Nc2ccc(C#N)cc2)nc2c(Cl)cn(C)c12 [Cpd 62],< 10,< 10,< 10,< 10
N#Cc1ccc(Nc2nc(Nc3ccc(C4CC4)c4ccccc34)c3nc[nH]c3n2)cc1 [Cpd 22],> 100,> 100,> 100,< 10
Cc1cc(C)c(Oc2nc(Nc3ccc(C#N)cc3)nc3cc[nH]c23)c(C)c1 [Cpd 37],< 10,< 10,< 10,< 10
Cc1cc(C)c(Nc2nc(Nc3ccc(C#N)cc3)nc3[nH]ccc23)c(C)c1 [Cpd 4],10 to 100,10 to 100,10 to 100,< 10
Cc1cc(C)c(Oc2nc(Nc3cccc(C(F)(F)F)c3)nc3[nH]cnc23)c(C)c1 [Cpd 39],> 100,> 100,> 100,> 100
Cc1cc(C)c(Oc2nc(Nc3ccc(C(N)=O)cc3)nc3[nH]cnc23)c(C)c1 [Cpd 15],> 100,> 100,> 100,10 to 100
Cc1cc(C)c(Nc2nc(Nc3ccc(C#N)cc3)nc3[nH]cnc23)c(C)c1 [Cpd 23],< 10,10 to 100,< 10,< 10

Structure (SMILES),EC50 (HIV-1 Y188L) [nM],EC50 (HIV-1 L1001-K103N) [nM],EC50 (HIV-1 Y181C) [nM],EC50 (wild type HIV-1) [nM]
Cc1cc(C#N)cc(C)c1Oc1nc(Nc2ccc(C#N)cc2)nc2ccn(C)c12 [Cpd 68],< 10,< 10,< 10,< 10
Cc1cc(C)c(Oc2nc(Nc3ccc(S(N)(=O)=O)cc3)nc3[nH]cnc23)c(C)c1 [Cpd 12],> 100,> 100,> 100,10 to 100
Cc1cc(Cl)cc(C)c1Oc1nc(Nc2ccc(C#N)cc2)nc2[nH]ccc12 [Cpd 11],< 10,10 to 100,10 to 100,< 10
Cc1cc(C)c(Sc2nc(Nc3ccc(C#N)cc3)nc3c(Cl)c[nH]c23)c(C)c1 [Cpd 53],10 to 100,> 100,10 to 100,< 10
Cc1cc(Br)cc(C)c1Oc1nc(Nc2ccc(C#N)cc2)nc2[nH]ccc12 [Cpd 6],10 to 100,10 to 100,10 to 100,< 10
Cc1cc(C)c(Oc2nc(Nc3ccc(C#N)cc3)nc3[nH]cnc23)c(C)c1 [Cpd 5],< 10,< 10,< 10,< 10
Cc1cc(C)c(Sc2nc(Nc3ccc(C#N)cc3)nc3c(Br)c[nH]c23)c(C)c1 [Cpd 55],10 to 100,> 100,10 to 100,< 10
CCCc1nn(C)c2c(Oc3c(C)cc(C)cc3C)nc(Nc3ccc(C#N)cc3)nc12 [Cpd 43],> 100,10 to 100,10 to 100,10 to 100
Cc1cc(C#N)cc(C)c1Oc1nc(Nc2ccc(C#N)cc2)nc2[nH]cnc12 [Cpd 25],< 10,10 to 100,< 10,< 10
Cc1cc(C)c(Oc2nc(Nc3ccc(C#N)cc3)nc3[nH]ncc23)c(C)c1 [Cpd 7],10 to 100,10 to 100,< 10,< 10
CCN(c1ccc(C#N)cc1)c1nc(Oc2c(C)cc(C#N)cc2C)c2c(ccn2CC)n1 [Cpd 46],> 100,> 100,> 100,> 100
COC(=O)c1ccc(Nc2nc(Oc3c(C)cc(C)cc3C)c3nc[nH]c3n2)cc1 [Cpd 14],> 100,> 100,> 100,< 10
Cc1cc(C)c(Oc2nc(Nc3cccc(C#N)c3)nc3[nH]cnc23)c(C)c1 [Cpd 36],> 100,> 100,10 to 100,< 10
CC(=O)c1cc(C)c(Oc2nc(Nc3ccc(C#N)cc3)nc3cc[nH]c23)c(C)c1 [Cpd 61],< 10,< 10,< 10,< 10
Cc1cc(C#N)cc(C)c1Oc1nc(Nc2ccc(C#N)cc2)nc2[nH]ccc12 [Cpd 3],< 10,< 10,< 10,< 10
Cc1cc(C#N)cc(C)c1Oc1nc(Nc2ccc(C#N)cc2)nc2cc[nH]c12 [Cpd 42],< 10,< 10,< 10,< 10
Cc1cccc(C)c1Oc1nc(Nc2ccc(C#N)cc2)nc2cc[nH]c12 [Cpd 65],< 10,> 100,< 10,< 10
Cc1cc(C)c(Oc2nc(Nc3ccc(C#N)cc3)nc3ccn(C)c23)c(C)c1 [Cpd 57],< 10,< 10,< 10,< 10
Cc1cc(C)c(Oc2nc(Nc3ccc(C#N)cc3)nc3[nH]ccc23)c(C)c1 [Cpd 1],10 to 100,10 to 100,10 to 100,< 10
Cc1cc(C#N)cc(C)c1Oc1nc(Nc2ccc(C#N)cc2)nc2c(Cl)c[nH]c12 [Cpd 49],< 10,< 10,< 10,< 10
N#Cc1ccc(Nc2nc(Nc3ccc(C#N)cc3)c3nc[nH]c3n2)cc1 [Cpd 24],> 100,> 100,> 100,10 to 100
Cc1cc(C)c(Oc2nc(Nc3ccc(F)cc3)nc3[nH]cnc23)c(C)c1 [Cpd 34],10 to 100,10 to 100,< 10,< 10
N#Cc1ccc(Nc2nc(Nc3ccc4c(c3)CCC4)c3nc[nH]c3n2)cc1 [Cpd 29],> 100,> 100,> 100,< 10
Cc1cc(Cl)cc(C)c1Oc1nc(Nc2ccc(C#N)cc2)nc2cc[nH]c12 [Cpd 66],< 10,< 10,< 10,< 10
Cc1cc(Br)cc(Cl)c1Oc1nc(Nc2ccc(C#N)cc2)nc2[nH]ccc12 [Cpd 10],10 to 100,10 to 100,10 to 100,< 10
